# Experiments:
# [1] = target: T1, CDK9/cyclin T1(h) (Homo sapiens, UniProt P50750); assay: Eurofins kinase panel; format: biochemical; settings: read-out: Inhibition rate (%)
# T1 construct: purchased Eurofins (KinaseProfiler)
# [2] = tested on: BMDM (CSF-2); assay: Macrophage survival (CCK-8); format: cell-based, murine; settings: Mus musculus, BMDM, 168 h; 7 days
# Method: Murine bone marrow-derived macrophages (BMDMs) and PBMCs were used for cell viability studies. BMDMs were harvested by flushing the tibias and femurs of 6- to 8-week-old C57BL/6 mice and depleting red blood cells (RBCs) by RBC lysis (Biogems). For BMDM survival, the cells were cultured for 7 days in RPMI 1640 containing 10% fetal bovine serum (FBS), 100 U/mL penicillin, 100 μg/mL streptomycin and 100 ng/mL mouse CSF-1 (or CSF-2) with or without the tested compounds. PBMCs were obtained from HemaCare and cultured for 7 days in RPMI 1640 containing 10% fetal bovine serum (FBS), 100 U/mL penicillin, 100 μg/mL streptomycin and 100 ng/mL human CSF-1 (or CSF-2) with or without the tested compounds. Cell viability was measured using the CCK-8 assay. For IL-4/IL-13-induced macrophage survival analysis, viable cells were counted by trypan blue exclusion.
# [3] = target: T2, Mer(h) (Homo sapiens, UniProt Q12866); assay: Eurofins kinase panel; format: biochemical; settings: read-out: Inhibition rate (%)
# T2 construct: purchased Eurofins (KinaseProfiler)
# T2 sequence (Q12866 21-999): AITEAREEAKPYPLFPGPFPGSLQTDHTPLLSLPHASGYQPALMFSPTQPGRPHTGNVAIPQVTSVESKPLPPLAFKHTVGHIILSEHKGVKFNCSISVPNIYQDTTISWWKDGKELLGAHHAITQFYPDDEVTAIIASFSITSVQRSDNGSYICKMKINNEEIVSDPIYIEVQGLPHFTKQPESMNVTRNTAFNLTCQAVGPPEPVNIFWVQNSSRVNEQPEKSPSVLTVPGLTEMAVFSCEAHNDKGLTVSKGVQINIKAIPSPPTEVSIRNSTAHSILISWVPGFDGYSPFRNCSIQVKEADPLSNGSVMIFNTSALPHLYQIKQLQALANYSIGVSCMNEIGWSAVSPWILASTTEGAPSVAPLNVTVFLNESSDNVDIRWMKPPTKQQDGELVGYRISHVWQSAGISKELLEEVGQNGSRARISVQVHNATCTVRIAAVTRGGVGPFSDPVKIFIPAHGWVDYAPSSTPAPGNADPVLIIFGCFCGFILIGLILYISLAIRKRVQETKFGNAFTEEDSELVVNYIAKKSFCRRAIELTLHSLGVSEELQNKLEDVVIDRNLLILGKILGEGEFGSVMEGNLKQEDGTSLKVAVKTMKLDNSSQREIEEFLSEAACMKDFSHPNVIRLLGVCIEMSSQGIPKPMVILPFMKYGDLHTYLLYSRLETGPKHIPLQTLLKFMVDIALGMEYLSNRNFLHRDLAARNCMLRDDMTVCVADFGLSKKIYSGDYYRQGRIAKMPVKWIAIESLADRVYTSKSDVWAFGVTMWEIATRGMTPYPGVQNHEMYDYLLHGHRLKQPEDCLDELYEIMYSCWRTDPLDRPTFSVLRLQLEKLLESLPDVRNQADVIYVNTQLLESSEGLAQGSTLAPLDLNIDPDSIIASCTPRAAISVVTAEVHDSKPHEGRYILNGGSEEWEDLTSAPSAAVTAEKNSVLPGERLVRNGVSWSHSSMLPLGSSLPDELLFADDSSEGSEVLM
# [4] = target: T3, Tie2 (h) (Homo sapiens, UniProt Q02763); assay: Eurofins kinase panel; format: biochemical; settings: read-out: Inhibition rate (%)
# T3 construct: purchased Eurofins (KinaseProfiler)
# T3 sequence (Q02763 23-1124): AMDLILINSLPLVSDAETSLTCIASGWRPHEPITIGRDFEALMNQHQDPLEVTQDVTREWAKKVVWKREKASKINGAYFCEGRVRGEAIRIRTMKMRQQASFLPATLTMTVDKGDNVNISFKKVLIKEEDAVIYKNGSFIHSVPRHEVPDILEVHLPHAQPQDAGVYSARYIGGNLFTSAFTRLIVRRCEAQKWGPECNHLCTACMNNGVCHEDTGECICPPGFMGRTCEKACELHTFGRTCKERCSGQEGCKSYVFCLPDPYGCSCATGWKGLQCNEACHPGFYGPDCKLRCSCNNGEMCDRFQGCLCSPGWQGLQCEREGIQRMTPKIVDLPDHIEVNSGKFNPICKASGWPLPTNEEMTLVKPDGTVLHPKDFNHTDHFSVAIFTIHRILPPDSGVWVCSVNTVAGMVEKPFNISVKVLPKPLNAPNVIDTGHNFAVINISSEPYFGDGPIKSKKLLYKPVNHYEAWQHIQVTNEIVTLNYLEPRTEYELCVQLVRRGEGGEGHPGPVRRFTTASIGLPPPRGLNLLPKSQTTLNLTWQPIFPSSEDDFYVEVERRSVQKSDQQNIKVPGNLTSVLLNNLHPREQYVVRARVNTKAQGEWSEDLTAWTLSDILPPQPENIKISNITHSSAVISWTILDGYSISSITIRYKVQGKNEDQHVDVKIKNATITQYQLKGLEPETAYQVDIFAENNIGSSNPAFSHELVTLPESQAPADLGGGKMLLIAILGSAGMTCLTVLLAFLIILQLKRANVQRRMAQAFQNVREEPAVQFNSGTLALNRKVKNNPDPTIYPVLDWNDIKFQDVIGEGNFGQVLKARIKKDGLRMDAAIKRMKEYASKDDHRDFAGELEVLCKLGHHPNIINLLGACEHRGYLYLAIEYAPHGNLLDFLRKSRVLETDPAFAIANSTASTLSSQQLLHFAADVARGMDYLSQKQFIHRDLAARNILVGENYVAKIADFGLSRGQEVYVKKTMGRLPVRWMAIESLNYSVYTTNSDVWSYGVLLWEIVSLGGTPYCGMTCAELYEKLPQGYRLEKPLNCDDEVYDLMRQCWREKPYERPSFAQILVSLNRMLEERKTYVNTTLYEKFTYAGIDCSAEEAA
# [5] = target: T4, CLK2(h) (Homo sapiens, UniProt P49760); assay: Eurofins kinase panel; format: biochemical; settings: read-out: Inhibition rate (%)
# T4 construct: purchased Eurofins (KinaseProfiler)
# T4 sequence (P49760 whole entry): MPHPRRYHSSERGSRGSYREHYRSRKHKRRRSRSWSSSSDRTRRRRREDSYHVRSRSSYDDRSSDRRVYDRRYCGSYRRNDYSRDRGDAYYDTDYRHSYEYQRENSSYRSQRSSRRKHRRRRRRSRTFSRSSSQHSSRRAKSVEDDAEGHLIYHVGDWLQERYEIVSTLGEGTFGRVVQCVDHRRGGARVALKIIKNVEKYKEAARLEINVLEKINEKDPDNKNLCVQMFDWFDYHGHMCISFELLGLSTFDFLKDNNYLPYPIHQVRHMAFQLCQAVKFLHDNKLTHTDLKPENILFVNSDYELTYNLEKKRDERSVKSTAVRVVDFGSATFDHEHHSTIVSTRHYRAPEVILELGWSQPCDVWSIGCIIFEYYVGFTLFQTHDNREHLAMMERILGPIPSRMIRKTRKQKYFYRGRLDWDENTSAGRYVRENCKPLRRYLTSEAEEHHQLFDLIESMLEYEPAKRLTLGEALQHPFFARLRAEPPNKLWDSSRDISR
# [6] = target: T5, PKCη(h) (Homo sapiens, UniProt P24723); assay: Eurofins kinase panel; format: biochemical; settings: read-out: Inhibition rate (%)
# T5 construct: purchased Eurofins (KinaseProfiler)
# T5 sequence (P24723 whole entry): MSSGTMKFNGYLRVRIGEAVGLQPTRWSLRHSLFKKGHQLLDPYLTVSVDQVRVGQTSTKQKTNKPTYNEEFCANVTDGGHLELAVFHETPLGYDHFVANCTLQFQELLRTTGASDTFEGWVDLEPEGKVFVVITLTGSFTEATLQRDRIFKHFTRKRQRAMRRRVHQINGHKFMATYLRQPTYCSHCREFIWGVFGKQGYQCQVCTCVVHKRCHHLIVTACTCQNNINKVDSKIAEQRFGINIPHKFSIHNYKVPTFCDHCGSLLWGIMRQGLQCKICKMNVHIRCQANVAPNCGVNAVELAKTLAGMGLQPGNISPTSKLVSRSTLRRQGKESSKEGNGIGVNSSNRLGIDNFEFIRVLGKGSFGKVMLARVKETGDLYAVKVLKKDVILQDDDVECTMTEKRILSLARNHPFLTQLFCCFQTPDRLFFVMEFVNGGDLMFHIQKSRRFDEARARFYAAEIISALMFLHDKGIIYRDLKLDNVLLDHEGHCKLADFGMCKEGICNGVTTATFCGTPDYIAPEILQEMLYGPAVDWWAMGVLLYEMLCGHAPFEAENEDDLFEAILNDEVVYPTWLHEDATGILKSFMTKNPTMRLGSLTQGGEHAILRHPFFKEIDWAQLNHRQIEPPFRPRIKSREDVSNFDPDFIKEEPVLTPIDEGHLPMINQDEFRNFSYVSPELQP
# [7] = target: T6, cSRC(h) (Homo sapiens, UniProt P12931); assay: Eurofins kinase panel; format: biochemical; settings: read-out: Inhibition rate (%)
# T6 construct: purchased Eurofins (KinaseProfiler)
# T6 sequence (P12931 whole entry): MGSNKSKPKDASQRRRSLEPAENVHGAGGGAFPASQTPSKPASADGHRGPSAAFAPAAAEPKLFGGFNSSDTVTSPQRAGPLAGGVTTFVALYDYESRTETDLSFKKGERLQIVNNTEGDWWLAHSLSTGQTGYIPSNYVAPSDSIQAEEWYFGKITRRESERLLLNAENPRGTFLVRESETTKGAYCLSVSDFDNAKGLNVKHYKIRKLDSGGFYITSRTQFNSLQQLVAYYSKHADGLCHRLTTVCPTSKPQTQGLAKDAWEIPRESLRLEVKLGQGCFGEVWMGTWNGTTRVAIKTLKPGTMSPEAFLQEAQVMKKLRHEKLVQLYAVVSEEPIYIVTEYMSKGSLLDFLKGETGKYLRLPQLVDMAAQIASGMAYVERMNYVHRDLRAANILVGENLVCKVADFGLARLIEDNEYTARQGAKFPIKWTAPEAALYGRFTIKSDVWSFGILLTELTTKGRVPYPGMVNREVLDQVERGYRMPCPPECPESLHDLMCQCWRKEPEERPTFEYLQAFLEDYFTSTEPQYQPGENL
# [8] = target: T7, Lyn(h) (Homo sapiens, UniProt P07948); assay: Eurofins kinase panel; format: biochemical; settings: read-out: Inhibition rate (%)
# T7 construct: purchased Eurofins (KinaseProfiler)
# T7 sequence (P07948 whole entry): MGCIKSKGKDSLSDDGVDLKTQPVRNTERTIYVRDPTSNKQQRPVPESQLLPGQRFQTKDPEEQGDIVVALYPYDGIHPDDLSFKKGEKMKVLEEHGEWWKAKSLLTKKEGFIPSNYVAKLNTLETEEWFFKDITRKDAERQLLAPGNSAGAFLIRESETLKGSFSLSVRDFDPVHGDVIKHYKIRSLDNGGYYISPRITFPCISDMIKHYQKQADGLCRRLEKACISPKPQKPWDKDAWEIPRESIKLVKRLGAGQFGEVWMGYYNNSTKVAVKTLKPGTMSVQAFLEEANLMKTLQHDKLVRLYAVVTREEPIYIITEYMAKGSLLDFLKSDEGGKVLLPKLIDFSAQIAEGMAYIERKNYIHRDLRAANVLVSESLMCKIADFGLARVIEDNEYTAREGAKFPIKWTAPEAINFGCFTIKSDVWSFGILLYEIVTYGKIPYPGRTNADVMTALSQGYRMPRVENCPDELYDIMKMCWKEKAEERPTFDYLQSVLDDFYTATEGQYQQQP
# [9] = target: T8, Aurora-C(h) (Homo sapiens, UniProt Q9UQB9); assay: Eurofins kinase panel; format: biochemical; settings: read-out: Inhibition rate (%)
# T8 construct: purchased Eurofins (KinaseProfiler)
# T8 sequence (Q9UQB9 1-309): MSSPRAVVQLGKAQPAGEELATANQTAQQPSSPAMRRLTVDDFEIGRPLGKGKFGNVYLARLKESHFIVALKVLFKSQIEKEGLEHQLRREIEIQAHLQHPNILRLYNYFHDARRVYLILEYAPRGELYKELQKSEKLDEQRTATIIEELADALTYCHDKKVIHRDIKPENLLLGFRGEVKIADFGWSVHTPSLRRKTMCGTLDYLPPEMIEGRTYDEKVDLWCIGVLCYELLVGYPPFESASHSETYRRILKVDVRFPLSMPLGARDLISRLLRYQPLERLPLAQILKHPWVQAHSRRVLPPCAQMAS
# [10] = target: T9, ULK3(h) (Homo sapiens, UniProt Q6PHR2); assay: Eurofins kinase panel; format: biochemical; settings: read-out: Inhibition rate (%)
# T9 construct: purchased Eurofins (KinaseProfiler)
# T9 sequence (Q6PHR2 1-472): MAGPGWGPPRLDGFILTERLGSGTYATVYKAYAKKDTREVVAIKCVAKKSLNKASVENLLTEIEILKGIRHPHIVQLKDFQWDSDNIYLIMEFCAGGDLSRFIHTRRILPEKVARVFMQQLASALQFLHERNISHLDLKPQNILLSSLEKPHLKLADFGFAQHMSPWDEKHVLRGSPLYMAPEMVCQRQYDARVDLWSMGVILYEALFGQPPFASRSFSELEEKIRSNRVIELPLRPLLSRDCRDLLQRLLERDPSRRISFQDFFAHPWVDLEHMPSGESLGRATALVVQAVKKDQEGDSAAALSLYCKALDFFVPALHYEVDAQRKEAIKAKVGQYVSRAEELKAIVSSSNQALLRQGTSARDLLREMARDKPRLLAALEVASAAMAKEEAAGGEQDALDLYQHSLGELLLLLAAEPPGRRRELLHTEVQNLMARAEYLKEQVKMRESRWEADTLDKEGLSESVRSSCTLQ
# T1 sequence (P50750 whole entry): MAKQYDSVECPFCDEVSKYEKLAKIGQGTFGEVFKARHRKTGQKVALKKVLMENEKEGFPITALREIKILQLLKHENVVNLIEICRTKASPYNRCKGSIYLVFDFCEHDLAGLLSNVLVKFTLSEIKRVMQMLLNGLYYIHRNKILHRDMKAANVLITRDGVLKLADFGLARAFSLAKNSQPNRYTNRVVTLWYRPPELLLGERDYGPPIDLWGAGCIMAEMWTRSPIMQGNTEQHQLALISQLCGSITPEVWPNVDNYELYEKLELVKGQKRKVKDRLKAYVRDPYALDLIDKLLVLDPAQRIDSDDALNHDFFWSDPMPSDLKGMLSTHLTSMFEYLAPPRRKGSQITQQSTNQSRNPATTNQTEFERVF
# T1 sequence (O60563 whole entry partner): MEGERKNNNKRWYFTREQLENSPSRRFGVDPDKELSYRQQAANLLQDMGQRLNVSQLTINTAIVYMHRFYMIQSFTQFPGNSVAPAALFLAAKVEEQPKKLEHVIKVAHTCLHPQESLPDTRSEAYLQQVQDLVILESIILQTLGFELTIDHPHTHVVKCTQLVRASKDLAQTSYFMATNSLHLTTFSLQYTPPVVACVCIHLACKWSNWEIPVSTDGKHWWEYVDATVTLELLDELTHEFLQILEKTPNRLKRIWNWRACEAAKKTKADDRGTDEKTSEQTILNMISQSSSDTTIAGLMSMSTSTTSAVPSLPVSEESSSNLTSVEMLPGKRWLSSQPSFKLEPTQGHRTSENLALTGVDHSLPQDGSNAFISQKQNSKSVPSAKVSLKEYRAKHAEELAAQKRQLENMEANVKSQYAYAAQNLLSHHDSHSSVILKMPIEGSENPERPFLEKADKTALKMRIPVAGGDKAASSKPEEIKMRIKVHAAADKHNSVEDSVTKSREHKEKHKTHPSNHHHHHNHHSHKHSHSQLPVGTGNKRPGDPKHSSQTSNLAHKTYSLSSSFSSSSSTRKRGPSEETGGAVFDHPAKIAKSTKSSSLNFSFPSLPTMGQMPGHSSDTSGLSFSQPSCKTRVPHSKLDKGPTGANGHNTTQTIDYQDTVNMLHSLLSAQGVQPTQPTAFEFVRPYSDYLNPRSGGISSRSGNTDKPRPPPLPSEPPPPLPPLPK
structure (smiles),measurement,setting,value
COc1cc(OC)c(Cl)c(-c2ccc3c(NC(=O)c4ccc(N5CCNC(C)(C)C5)cc4)n[nH]c3n2)c1Cl [3D185],inhibition at 0.01 µM,[1]; 10 nM,-12%
same,inhibition at 0.1 µM,[1]; 100 nM,0%
same,inhibition at 1 µM,[1]; 1000 nM,4%
same,IC50,[2],> 1000 nM
same,inhibition at 0.01 µM,[3]; 10 nM,-9%
same,inhibition at 0.1 µM,[3]; 100 nM,-7%
same,inhibition at 1 µM,[3]; 1000 nM,32%
same,inhibition at 0.01 µM,[4]; 10 nM,19%
same,inhibition at 0.1 µM,[4]; 100 nM,64%
same,inhibition at 1 µM,[4]; 1000 nM,95%
same,inhibition at 0.01 µM,[5]; 10 nM,5%
same,inhibition at 0.1 µM,[5]; 100 nM,3%
same,inhibition at 1 µM,[5]; 1000 nM,7%
same,inhibition at 0.01 µM,[6]; 10 nM,-10%
same,inhibition at 0.1 µM,[6]; 100 nM,-1%
same,inhibition at 1 µM,[6]; 1000 nM,-9%
same,inhibition at 0.01 µM,[7]; 10 nM,26%
same,inhibition at 0.1 µM,[7]; 100 nM,53%
same,inhibition at 1 µM,[7]; 1000 nM,87%
same,inhibition at 0.01 µM,[8]; 10 nM,8%
same,inhibition at 0.1 µM,[8]; 100 nM,81%
same,inhibition at 1 µM,[8]; 1000 nM,98%
same,inhibition at 0.01 µM,[9]; 10 nM,-15%
same,inhibition at 0.1 µM,[9]; 100 nM,6%
same,inhibition at 1 µM,[9]; 1000 nM,-2%
same,inhibition at 0.01 µM,[10]; 10 nM,-8%
same,inhibition at 0.1 µM,[10]; 100 nM,2%
same,inhibition at 1 µM,[10]; 1000 nM,-1%
